This note sets out measurements from patent US8252798B2, “Purine compounds” (Eli Lilly and Company, priority 2008, dated 2012).

The target of test [1] is T1, human CB2 receptor (Homo sapiens, UniProt P34972).
T1 construct: expressed in transfected cells
The test can be described thus: Displacement of 3H-CP55940 from human CB2 receptors. The format is binding. The note with it: displacement of 3H-CP55940, human CB2 membrane homogenates. Here is the method:
(§1) The methods of Felder et al. (Mol. Pharmaocol. 48:443-450, 1995) were utilized with minor modifications. Specifically, membrane homogenates from cells stably or transiently expressing the human or rat CB2 receptor were washed by centrifugation and diluted into a 50 mM Tris HCl (pH 7.4), 5 mM MgCl2, 2.5 mM EDTA, and 0.1% BSA buffer. Specific binding of 3H-CP55940 was defined with 1 μM CP55940. The ability of compounds to displace specific 3H-CP55940 binding was tested over a range of concentrations in the Tris, MgCl2, EDTA, BSA buffer in the presence of 1% dimethyl sulfoxide by incubating at room temperature for 90 minutes in a volume of 300 μl. Unifilter 96-well microplates pretreated with 0.5% polyvinylpyrrolidone, 0.1% polysorbate 20 in water were washed three times with cold Tris buffer. The reaction mixture was then transferred to the filter plate immediately before terminating the incubation by rapid filtration and three 200 μl washes with cold Tris buffer. After the filter plates dried, microscint 20 was added to each well, the plate sealed and counted for determination of disintegrations per minute. The displacement curves were graphed and the resulting Ki values determined utilizing Graphpad Prism.

Test [2] deals with T2, rat CB2 receptor (Rattus norvegicus, UniProt Q9QZN9).
T2 construct: expressed in transfected cells
T2 sequence (Q9QZN9 1-360): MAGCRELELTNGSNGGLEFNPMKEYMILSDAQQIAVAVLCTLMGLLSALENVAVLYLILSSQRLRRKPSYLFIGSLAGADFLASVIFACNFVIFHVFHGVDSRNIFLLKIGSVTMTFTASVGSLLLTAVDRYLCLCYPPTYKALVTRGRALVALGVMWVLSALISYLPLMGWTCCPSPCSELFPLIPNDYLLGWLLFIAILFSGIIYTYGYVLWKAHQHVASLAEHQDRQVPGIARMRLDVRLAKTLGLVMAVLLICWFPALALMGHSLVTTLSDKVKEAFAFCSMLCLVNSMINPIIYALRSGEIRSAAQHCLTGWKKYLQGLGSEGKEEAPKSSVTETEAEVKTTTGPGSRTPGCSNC
The test can be described thus: Displacement of 3H-CP55940 from rat CB2 receptors. In kind it is binding. The note with it: displacement of 3H-CP55940, rat CB2 membrane homogenates. Here is the method: as §1
Background: Displacement assays read how much labelled ligand stays bound in the presence of the test substance.

In test [3] the target is T3, hCB2-Sf9 membranes (Homo sapiens, UniProt P34972).
T3 construct: expressed in transfected cells; host or cells: Sf9
The test can be described thus: CB2 in vitro functional assay, SPA based GTP-γ-35S binding, agonist mode (antibody capture). In kind it is biochemical. The following applies: normalized to full agonist methanandamide, read-out: relative EC50 value for CB2. As to the method:
(§2) Exemplified compounds are tested in agonist mode using a SPA based GTP-γ-^35S binding assay. All assay components are prepared in assay buffer made up of 20 mM HEPES, 100 mM NaCl, 5 mM MgCl2, (pH 7.4 at room temperature). Semi-log compound dilutions are done in assay buffer containing BSA (final 0.125%). GTP-γ^35-S binding is measured in a 96 well format using a whole membrane capture technique for the CB1 assay and modifications of an antibody capture technique previously described (DeLapp et al. J Pharmacol Exp Ther 289:946-955, 1999) for the CB2 assay. All incubations are done at room temperature.
hCB2-Sf9 membranes and GDP (1 uM final) are added to assay buffer and homogenized. Diluted compounds and membranes are added to the assay plate and pre-incubated for 15 minutes. This is followed by addition of GTP-γ-^35S (500 nM final) and another 35 minute incubation. Next a mixture containing Nonidet® P40 detergent (0.2% final), anti-Gi antibody (final dilution of 1:362), and 1.25 mg anti-rabbit antibody scintillation proximity assay beads is added. The plates are then sealed, vortexed, and incubated for an additional 2 hours before centrifuging and counting as for CB1.
To analyze data, first subtract background from all wells. Determine percent agonist efficacy by normalizing agonist/inverse agonist dose response data to a full agonist (methanandamide) response. […]
On the technique in general: GTPγS is a poorly hydrolysed GTP analogue; its binding reports G protein activation.

The target of test [4] is T4, hCB1-CHO membranes (Homo sapiens, UniProt P21554).
T4 construct: expressed in transfected cells; host or cells: CHO
The test can be described thus: CB1 in vitro functional assay, SPA based GTP-γ-35S binding, agonist mode (whole membrane capture). In kind it is biochemical. The note with it: normalized to full agonist methanandamide, read-out: relative EC50 value for CB1. As to the method: as §2
hCB1-CHO membranes, GDP (1 uM final), and saponin (10 ug/mL final) are added to assay buffer and homogenized. Diluted compounds, GTP-γ-^35S (500 nM final) and membranes are added to the assay plate and incubated for 30 minutes. Then 1 mg/well Wheatgerm Agglutinin SPA bead is added, and the plates are sealed, vortexed, and incubated for an additional hour. Plates are then centrifuged at 700×g for 10 minutes and counted for 1 minute per well using a scintillation counter.
To analyze data, first subtract background from all wells. Determine percent agonist efficacy by normalizing agonist/inverse agonist dose response data to a full agonist (methanandamide) response. Analyze the data using a 4-parameter logistic reduced fit with Activity Base and XLFit3.

Test [5] concerns male Lewis rats. The test can be described thus: Monoiodoacetate (MIA) model, incapacitance testing of knee pain. The note with it: rat MIA model. The format is in vivo. Here is the method: For all studies male Lewis rats of approximately 8 weeks of age at the time of MIA injection are used to measure pain in the MIA model. The rats are housed in groups of 2 or 3 per cage and maintained in a constant temperature and on a 12 hour light/12 hour dark cycle. Animals have free access to food and water at all times except during data collection.
In the standard MIA model the right knees of each rat are injected with 0.3 mg MIA in 50 ul of saline and the left knees with 50 ul of saline. Pain is measured at varying times after MIA injection (not normally before 10 day post MIA injection) using incapacitance testing. This measures the difference in hind paw weight bearing between the MIA and saline injected knees, and each measurement is the average of 3 separate measurements each measured over 1 second.
For studies with CB2 agonists rats are randomized into dose groups (n=5 or 6) and then dosed once with the compound under investigation. Dosing is staggered by 15 minutes for each rat and at a predetermined time post-dose (usually 2 hours), pain measured using incapacitance testing. Studies are routinely run with 4 groups, vehicle (1% carboxy methyl cellulose in water plus 0.25% polysorbate 80) and 3 compound groups which can be either single compounds at a single dose or the same compound at 3 doses. […]

Structures can show the parent of a compound that is named as a salt.

T1 sequence (P34972 whole entry): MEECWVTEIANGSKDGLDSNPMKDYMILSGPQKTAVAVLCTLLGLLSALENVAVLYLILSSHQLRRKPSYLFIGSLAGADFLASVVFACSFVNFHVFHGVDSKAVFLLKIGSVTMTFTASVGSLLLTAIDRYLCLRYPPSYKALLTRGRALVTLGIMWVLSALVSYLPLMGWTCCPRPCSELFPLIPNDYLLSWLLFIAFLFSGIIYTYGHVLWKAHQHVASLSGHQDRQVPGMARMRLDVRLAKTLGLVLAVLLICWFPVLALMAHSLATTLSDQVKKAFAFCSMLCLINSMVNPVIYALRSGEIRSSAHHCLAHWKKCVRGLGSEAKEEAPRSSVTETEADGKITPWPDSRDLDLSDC
T3 sequence (P34972 whole entry): as above
T4 sequence (P21554 whole entry): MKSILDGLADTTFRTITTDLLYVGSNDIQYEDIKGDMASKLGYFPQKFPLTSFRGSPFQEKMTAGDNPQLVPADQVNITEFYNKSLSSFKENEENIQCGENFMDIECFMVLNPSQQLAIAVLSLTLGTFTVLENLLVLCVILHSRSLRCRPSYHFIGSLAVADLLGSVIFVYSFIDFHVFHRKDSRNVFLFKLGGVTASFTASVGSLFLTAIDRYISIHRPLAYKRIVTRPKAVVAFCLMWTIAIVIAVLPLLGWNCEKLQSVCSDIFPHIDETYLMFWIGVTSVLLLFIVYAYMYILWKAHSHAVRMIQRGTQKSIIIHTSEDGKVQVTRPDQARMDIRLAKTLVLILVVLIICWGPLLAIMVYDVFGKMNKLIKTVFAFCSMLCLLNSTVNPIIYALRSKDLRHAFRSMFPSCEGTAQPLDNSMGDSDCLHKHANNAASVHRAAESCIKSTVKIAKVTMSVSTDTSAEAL

The term Ki denotes a measure of affinity in units of concentration, obtained from inhibition or displacement. A lower Ki goes with a stronger hold on the target. As to `Cc1nc(N2CCN(C)CC2)c2nc(-c3cccnc3C3CC3)n([C@@H]3CCOC3)c2n1` [Example 76, 8-(2-Cyclopropyl-pyridin-3-yl)-2-methyl-6-(4-methyl-piperazin-1-yl)-9-(R)-tetrahydro-furan-3-yl-9H-purine hydrochloride salt], the Ki in test [1] came out at 33.9 nM; in test [2], 31.3 nM.

The EC50 is the concentration giving half of the maximal effect. In the case of `Cc1nc(N2CCN3C(=O)CCC3C2)c2nc(-c3ccccc3Cl)n(CC3CCOCC3)c2n1` (single isomer, unassigned) [Example 61, 2-[8-(2-Chloro-phenyl)-2-methyl-9-(tetrahydro-pyran-4-ylmethyl)-9H-purin-6-yl]-hexahydro-pyrrolo[1,2-a]pyrazin-6-one hydrochloride salt], the EC50 in test [3] amounted to 18 nM; in test [4] it was 1950 nM.

For the compound `Cc1nc(N2CCN(C)CC2)c2nc(-c3ccccc3Cl)n([C@@H]3CCOC3)c2n1.Cl` [Example 88, 8-(2-Chloro-phenyl)-2-methyl-6-(4-methyl-piperazin-1-yl)-9-(R)-tetrahydro-furan-3-yl-9H-purine hydrochloride salt], the “pain versus vehicle (difference in hind paw weight bearing)” value in test [5] (oral dose 0.3 mg/kg) and in test [5] (oral dose 1 mg/kg) was “significantly reduce pain versus vehicle” in each case.
